According to PubChem BioAssay (NCI):
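Compound exposure: 48 hours, 5 concentrations, 96-well plates. TGI: concentration producing complete growth inhibition.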

Columns and labels:
Experiment in all cases: NCI-60 cell line screen, 48 h
[1] = tested on: CCRF-CEM leukemia
[2] = tested on: NCI-H460 lung
[3] = tested on: OVCAR-4 ovarian
[4] = tested on: RXF 393 renal
[5] = tested on: SF-268 CNS
[6] = tested on: SK-OV-3 ovarian
[7] = tested on: SNB-75 CNS
[8] = tested on: SW-620 colon
[9] = tested on: UACC-257 melanoma
[10] = tested on: SNB-19 CNS

For `CC(=O)N=C1N(/C=C2\C(=O)Oc3ccccc3C2=O)C(=O)/C(=C/c2ccc(NC(C)=O)cc2)N1C`, the TGI [1] was over 100 µM, the TGI [2] was over 100 µM and the TGI [3] was over 100 µM. For the same molecule, the TGI [4] was over 100 µM, the TGI [5] was over 100 µM and the TGI [6] was over 100 µM. For the same molecule, the TGI [7] was over 100 µM, the TGI [8] was over 100 µM and the TGI [9] was over 100 µM.

Work on `O=S(=O)(/N=C(\NO)Nc1ccc(Cl)cc1)c1cccc2nsnc12` yielded a TGI [1] of 71.9 µM, a TGI [2] of over 100 µM and a TGI [3] of over 100 µM. The TGI [4] was over 100 µM, the TGI [5] was over 100 µM and the TGI [6] was over 100 µM. The TGI [10] was over 100 µM, the TGI [7] was over 100 µM and the TGI [8] was over 100 µM. It also gave a TGI [9] of over 100 µM.

Work on `CC(=O)N=C1N(/C=C2\C(=O)Oc3ccccc3C2=O)C(=O)/C(=C/c2ccc(Cl)cc2Cl)N1C` yielded a TGI [1] of over 100 µM, a TGI [3] of over 100 µM and a TGI [4] of over 100 µM. It also gave a TGI [5] of over 100 µM, a TGI [6] of over 100 µM and a TGI [7] of over 100 µM. The TGI [8] was over 100 µM and the TGI [9] was over 100 µM.

`CC(C)C(N)=O` was tested, and the TGI [1] was over 5000 µM, the TGI [2] was over 5000 µM and the TGI [3] was over 5000 µM. It also gave a TGI [4] of over 5000 µM, a TGI [5] of over 5000 µM and a TGI [6] of over 5000 µM. It also gave a TGI [7] of over 5000 µM, a TGI [8] of over 5000 µM and a TGI [9] of over 5000 µM.

Work on `COC(=O)[C@H](Cc1c[nH]c2ccccc12)NC(=O)c1ccc(CNC(=O)/C=C/c2cccc(Oc3ccccc3)c2)cc1` yielded a TGI [1] of over 100 µM, a TGI [2] of over 100 µM and a TGI [3] of over 100 µM. For the same molecule, the TGI [4] was 81.6 µM, the TGI [5] was over 100 µM and the TGI [6] was over 100 µM. It also gave a TGI [10] of over 100 µM, a TGI [7] of over 100 µM and a TGI [8] of over 100 µM. The TGI [9] was 40.3 µM.

In the case of `C[N+]1(CCCl)CC[N+](C)(CCCl)CC1` (stereo unspecified), the TGI [1] is reported as over 100 µM, the TGI [2] is reported as over 100 µM and the TGI [3] is reported as over 100 µM. The TGI [4] was over 100 µM, the TGI [5] was over 100 µM and the TGI [6] was over 100 µM. It also gave a TGI [10] of over 100 µM, a TGI [7] of over 100 µM and a TGI [8] of over 100 µM. The TGI [9] was over 100 µM.

In the case of `Cc1csc(/N=C\c2c(O)c3ccccc3oc2=O)n1`, the TGI [1] is reported as over 100 µM, the TGI [3] is reported as over 100 µM and the TGI [5] is reported as over 100 µM. It also gave a TGI [6] of 45.6 µM, a TGI [10] of over 100 µM and a TGI [7] of 65.1 µM. It also gave a TGI [8] of over 100 µM and a TGI [9] of over 100 µM.

Work on `Cc1c2c(OCCN3CCCCC3)nn(C)c(=O)c2c(C)n1-c1ccccc1` yielded a TGI [1] of over 100 µM, a TGI [2] of over 100 µM and a TGI [3] of over 100 µM. It also gave a TGI [4] of over 100 µM, a TGI [5] of over 100 µM and a TGI [6] of over 100 µM. For the same molecule, the TGI [10] was over 100 µM, the TGI [7] was over 100 µM and the TGI [8] was over 100 µM. For the same molecule, the TGI [9] was 42.6 µM.

Molecule `CN(C)CCCn1nc(N)c2nc3cc(Cl)ccc3nc21` has a TGI [1] of 96.5 µM, a TGI [2] of over 100 µM and a TGI [3] of over 100 µM. For the same molecule, the TGI [4] was over 100 µM, the TGI [5] was over 100 µM and the TGI [6] was over 100 µM. For the same molecule, the TGI [10] was over 100 µM, the TGI [7] was over 100 µM and the TGI [8] was over 100 µM. It also gave a TGI [9] of 59.3 µM.

Molecule `CCNC(=O)c1c(O)c2ccccc2[nH]c1=O` has a TGI [1] of over 100 µM, a TGI [2] of over 100 µM and a TGI [3] of over 100 µM. It also gave a TGI [4] of over 100 µM, a TGI [5] of over 100 µM and a TGI [10] of over 100 µM. The TGI [7] was over 100 µM, the TGI [8] was over 100 µM and the TGI [9] was over 100 µM.

`CCN(CC)CCNC(=O)c1cn2c(ccc3sc4ccccc4c(=O)c32)n1` showed a TGI [1] of 25.3 µM, a TGI [2] of 14.9 µM and a TGI [3] of 22.8 µM. It also gave a TGI [4] of 24.2 µM, a TGI [5] of 24.8 µM and a TGI [6] of 25.5 µM. For the same molecule, the TGI [10] was 27.5 µM, the TGI [7] was 32.6 µM and the TGI [8] was 20.3 µM. The TGI [9] was 30.1 µM.

`C=C1C(=O)O[C@@H]2C[C@]3(C)CC[C@]4(C)[C@H](CC[C@@H]5[C@@]6(C)CCC(=O)C(C)(C)[C@@H]6CC[C@]54C)[C@H]3[C@H]12` was tested, and the TGI [1] was 6.14 µM, the TGI [2] was 35 µM and the TGI [3] was 40.1 µM. For the same molecule, the TGI [4] was 34.3 µM, the TGI [5] was 46.1 µM and the TGI [6] was 44.1 µM. For the same molecule, the TGI [10] was over 60.6 µM, the TGI [7] was 43.9 µM and the TGI [8] was 55.4 µM. For the same molecule, the TGI [9] was 32.8 µM.

With `CCOP(=O)(OCC)C(C#N)Cc1ccco1` (stereo unspecified) the TGI [1] was over 10 µM, the TGI [2] was over 10 µM and the TGI [3] was over 10 µM. The TGI [4] was over 10 µM, the TGI [5] was over 10 µM and the TGI [6] was over 10 µM. For the same molecule, the TGI [10] was over 10 µM, the TGI [7] was over 10 µM and the TGI [8] was over 10 µM. It also gave a TGI [9] of over 10 µM.

`COc1ccc(C2C3COc4ccccc4C3=NN2c2ccccc2)cc1` (stereo unspecified) gave a TGI [1] of over 100 µM, a TGI [2] of over 100 µM and a TGI [3] of over 100 µM. The TGI [4] was over 100 µM, the TGI [5] was over 100 µM and the TGI [6] was over 100 µM. The TGI [10] was over 100 µM, the TGI [7] was over 100 µM and the TGI [8] was over 100 µM. The TGI [9] was over 100 µM.

With `C=C1C(=O)O[C@@H]2C=C(C)C3=CC(=O)[C@](C)(C[C@H](OC(=O)/C(C)=C\C)[C@@H]12)O3` the TGI [1] was 0.82 µM, the TGI [2] was 7.73 µM and the TGI [4] was 1.52 µM. It also gave a TGI [6] of 16.8 µM, a TGI [10] of 22.4 µM and a TGI [7] of 26.3 µM. It also gave a TGI [8] of 1.33 µM and a TGI [9] of 8.62 µM.

Molecule `CC1C2(C)OC(=N)C(C#N)(C(c3cccc([N+](=O)[O-])c3)O2)C1(C#N)C#N` (stereo unspecified) has a TGI [1] of 52.2 µM, a TGI [2] of 29.7 µM and a TGI [4] of 43.9 µM. The TGI [5] was over 100 µM, the TGI [6] was over 100 µM and the TGI [10] was over 100 µM. For the same molecule, the TGI [7] was over 100 µM, the TGI [8] was 31.3 µM and the TGI [9] was 49.6 µM.

`O=C(Cc1ccccc1)Nn1c(-c2ccccc2)nc2ccccc2c1=O` was tested, and the TGI [1] was over 100 µM, the TGI [2] was over 100 µM and the TGI [3] was over 100 µM. It also gave a TGI [4] of over 100 µM, a TGI [5] of over 100 µM and a TGI [6] of over 100 µM. For the same molecule, the TGI [10] was over 100 µM, the TGI [7] was over 100 µM and the TGI [8] was over 100 µM. It also gave a TGI [9] of over 100 µM.

`O=C1CCCCCCCCCCC1CN1CCCCC1` (stereo unspecified) was tested, and the TGI [1] was over 100 µM, the TGI [2] was over 100 µM and the TGI [3] was over 100 µM. It also gave a TGI [5] of over 100 µM, a TGI [10] of over 100 µM and a TGI [7] of over 100 µM. The TGI [8] was over 100 µM and the TGI [9] was over 100 µM.

`O=C(N/N=C1/C(=O)c2c3ccccc3cc3cccc1c23)c1ccccc1` showed a TGI [1] of over 100 µM, a TGI [2] of over 100 µM and a TGI [3] of 44.2 µM. The TGI [4] was 56.3 µM, the TGI [5] was over 91.9 µM and the TGI [6] was 75 µM. For the same molecule, the TGI [10] was over 100 µM, the TGI [7] was 74.9 µM and the TGI [8] was over 100 µM. For the same molecule, the TGI [9] was over 100 µM.

`CCOC(=O)c1sc2[n+](c1C)C(=O)/C(=C/c1ccc([N+](=O)[O-])cc1)S2` was tested, and the TGI [1] was over 100 µM, the TGI [2] was 45 µM and the TGI [3] was over 100 µM. The TGI [4] was 81.5 µM, the TGI [5] was 47.3 µM and the TGI [6] was 64.6 µM. For the same molecule, the TGI [10] was over 100 µM, the TGI [7] was 49.7 µM and the TGI [8] was 73.5 µM. The TGI [9] was 98 µM.

Molecule `CC1(C)C2CC(=O)C1(C)C(OCc1ccccc1)C2` (stereo unspecified) has a TGI [1] of 92.8 µM, a TGI [2] of over 100 µM and a TGI [5] of over 100 µM. The TGI [6] was over 100 µM, the TGI [10] was over 100 µM and the TGI [7] was over 100 µM. The TGI [8] was 87.3 µM and the TGI [9] was over 100 µM.
